This is an account of results in the Kinase Knowledgebase extract (Sharma et al. 2016).

The target in the assay is PIK3CA (human) (UniProt P42336). In words: Assessment of PIK3CA Kinase Activity.

Where only a bound is given, the exact number is not on record here.

Sequence of PIK3CA (human) (P42336 whole entry, looked up): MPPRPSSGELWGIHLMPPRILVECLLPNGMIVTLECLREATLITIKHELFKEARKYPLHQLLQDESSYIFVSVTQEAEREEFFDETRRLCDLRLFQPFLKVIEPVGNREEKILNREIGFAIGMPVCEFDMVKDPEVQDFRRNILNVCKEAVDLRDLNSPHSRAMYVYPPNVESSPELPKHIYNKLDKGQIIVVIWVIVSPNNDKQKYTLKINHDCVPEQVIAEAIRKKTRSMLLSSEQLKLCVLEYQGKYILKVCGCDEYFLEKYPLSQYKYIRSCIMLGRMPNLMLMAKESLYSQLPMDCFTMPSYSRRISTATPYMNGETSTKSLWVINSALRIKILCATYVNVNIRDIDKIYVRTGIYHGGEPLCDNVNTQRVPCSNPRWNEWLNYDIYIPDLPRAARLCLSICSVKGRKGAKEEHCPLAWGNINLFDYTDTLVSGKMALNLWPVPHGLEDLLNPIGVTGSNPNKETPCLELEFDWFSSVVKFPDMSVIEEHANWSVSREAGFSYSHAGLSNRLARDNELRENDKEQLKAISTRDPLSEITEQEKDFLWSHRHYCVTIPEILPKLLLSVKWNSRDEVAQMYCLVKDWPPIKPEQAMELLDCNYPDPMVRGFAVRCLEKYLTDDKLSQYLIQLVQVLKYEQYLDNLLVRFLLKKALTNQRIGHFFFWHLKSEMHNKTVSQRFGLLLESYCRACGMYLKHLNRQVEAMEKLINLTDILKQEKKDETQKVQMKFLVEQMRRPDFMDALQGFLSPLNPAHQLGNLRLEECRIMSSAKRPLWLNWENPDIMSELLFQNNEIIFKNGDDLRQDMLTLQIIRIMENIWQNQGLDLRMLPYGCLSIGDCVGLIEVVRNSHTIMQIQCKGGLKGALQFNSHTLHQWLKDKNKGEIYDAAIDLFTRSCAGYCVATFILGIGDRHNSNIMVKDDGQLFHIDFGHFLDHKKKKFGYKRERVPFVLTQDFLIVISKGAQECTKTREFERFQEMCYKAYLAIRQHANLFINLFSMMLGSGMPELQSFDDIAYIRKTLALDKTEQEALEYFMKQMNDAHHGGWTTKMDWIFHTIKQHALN

For orientation: IC50 means the concentration that inhibits the measured activity by half. `CN(C[C@@H](O)CO)C(=O)c1nc2c(s1)CCOc1cc(-c3cn[nH]c3)ccc1-2` came in with an IC50 of less than 1000 nM.

Regarding `CN(CCO)c1ccc2c(n1)-c1sc(-c3ncnn3-c3ccc(F)cc3F)cc1CCO2`, the IC50 was less than 1000 nM. Then `Cc1nn(C(C)C)c(=O)n1-c1nc2c(s1)CCOc1cc(-c3cnn(CC(C)(C)O)c3)ccc1-2`, with less than 1000 nM.

For `CC(C)n1ncnc1-c1nc2c(s1)CCOc1cc(C3CN(S(C)(=O)=O)C3)ccc1-2`, the IC50 was less than 1000 nM. Then `CC(C)n1ncnc1-c1nc2c(s1)CCOc1ccc(C3CN(C(=O)[C@@H](C)O)C3)cc1-2`, with less than 1000 nM; and `CC(C)(O)Cn1cc(-c2ccc3c(c2)OCCc2sc(N4C(=O)NC(=O)C4(C)C)nc2-3)cn1`, with less than 1000 nM; and `CC(C)(O)Cn1cc(-c2ccc3c(c2)OCCc2sc(-c4ncnn4CCN4CCOCC4)nc2-3)cn1`, with less than 1000 nM.

As for `CC(C)n1ncnc1-c1nc2c(s1)CCOc1ccc(-c3ccc(=O)[nH]c3)cc1-2`, the IC50 was less than 1000 nM. Then `CN(C)[C@@H]1CCN(C(=O)c2nc3c(s2)CCOc2cc(-c4cn[nH]c4)ccc2-3)C1`, with less than 1000 nM; and `CC(C)n1ncnc1-c1nc2c(s1)CCOc1cc(C3CN(CCS(=O)(=O)N4CC(F)(F)C4)C3)ccc1-2`, with less than 1000 nM. Then `O=C(c1nc2c(s1)CCOc1cc(-c3cn[nH]c3)ccc1-2)N1CCC[C@@H](CO)C1`, with less than 1000 nM.

`C[C@@H]1CN(c2ccc3c(n2)-c2sc(-c4ncnn4-c4ccc(F)cc4F)cc2CCO3)C[C@H](C)N1CC(F)F` gave an IC50 of less than 1000 nM.

`O=C(O)C1CCCN(C(=O)c2nc3c(s2)CCOc2cc(-c4cn[nH]c4)ccc2-3)C1` (stereo unspecified) showed an IC50 of less than 1000 nM. Then `CNC(=O)c1ccc2c(c1)OCCc1cc(C(=O)N(C)c3cc(C(=O)NC[C@H](C)O)ccc3Cl)sc1-2`, with less than 1000 nM; and `CC(C)n1nc(CO)nc1-c1nc2c(s1)CCOc1ccccc1-2`, with less than 1000 nM. Then `CC(C)n1ncnc1-c1cc2c(s1)-c1ccc(C3CNC3)cc1OCC2`, with less than 1000 nM; and `CC(C)C[C@@H](CO)NC(=O)c1nc2c(s1)CCOc1cc(-c3cn[nH]c3)ccc1-2`, with less than 1000 nM; and `CC(C)NC(=O)CN1CC(c2ccc3c(c2)OCCc2sc(-c4ncnn4C(C)C)nc2-3)C1`, with less than 1000 nM. Then `CN(C[C@H](O)c1ccccc1)C(=O)c1nc2c(s1)CCOc1cc(-c3cn[nH]c3)ccc1-2`, with less than 1000 nM.

`CC(C)(O)Cn1cc(-c2ccc3c(c2)OCCc2sc(-c4nccn4C4COC4)nc2-3)cn1` came in with an IC50 of less than 1000 nM. Then `COCCn1ccc(-c2ccc3c(c2)-c2nc(-c4ncnn4C(C)C)sc2CCO3)cc1=O`, with less than 1000 nM. Then `CC(C)(O)Cn1cc(-c2ccc3c(c2)OCCc2sc(NC(C)(C)CO)nc2-3)cn1`, with less than 1000 nM. Then `CN(C(=O)c1cc2c(s1)-c1ccc(C(=O)NCCS(C)(=O)=O)cc1OCC2)c1cc(C(=O)NCCO)ccc1Cl`, with less than 1000 nM.

Take `Cc1ncccc1-c1ccc2c(c1)-c1nc(C(=O)N(CCO)C(C)C)sc1CCO2`: the IC50 was less than 1000 nM. Then `Cc1nc(-c2nc3c(s2)CCOc2cc([C@@H]4CCCNC4)ccc2-3)n(C(C)C)n1`, with less than 1000 nM; and `CC(C)n1nc(N)nc1-c1nc2c(s1)CCOc1cc(F)ccc1-2`, with less than 1000 nM; and `CNC(=O)CN1CCC(c2ccc3c(c2)OCCc2sc(-c4ncnn4C(C)C)nc2-3)CC1`, with less than 1000 nM.

`CC1(C)C(=O)NC(=O)N1c1nc2c(s1)CCOc1ccccc1-2` had an IC50 of less than 1000 nM. Then `CC(C)n1nc(N)nc1-c1nc2c(s1)CCOc1cc(C3CN(CCS(C)(=O)=O)C3)ccc1-2`, with less than 1000 nM; and `CC(O)C(=O)N1CC(n2cc(-c3ccc4c(c3)OCCc3sc(-c5ncnn5C(C)C)nc3-4)cn2)C1` (stereo unspecified), with less than 1000 nM. `CC(C)n1ncnc1-c1nc2c(s1)CCOc1cc(-c3cnc(CO)n3C)ccc1-2` came in with an IC50 of less than 1000 nM. The compound `CN(C)C1CCN(C(=O)c2nc3c(s2)CCOc2cc(-c4cn[nH]c4)ccc2-3)CC1` showed an IC50 of less than 1000 nM. Then `C[C@@H]1CN(C2CCN(C(=O)c3nc4c(s3)CCOc3cc(-c5cn[nH]c5)ccc3-4)CC2)C[C@@H](C)O1`, with less than 1000 nM; and `Fc1ccc(-n2ncnc2-c2cc3c(s2)-c2nc(NCCN4CCCC4)ccc2OCC3)c(F)c1`, with less than 1000 nM.

`CC(=O)N1[C@H](C)CN(c2ccc3c(n2)-c2sc(-c4ncnn4-c4ccc(F)cc4F)cc2CCO3)C[C@@H]1C` displayed an IC50 of less than 1000 nM. Then `N#C[C@@H]1CCCN1C(=O)c1nc2c(s1)CCOc1cc(-c3cn[nH]c3)ccc1-2`, with less than 1000 nM; and `CC(O)C(=O)N1CC(n2ccnc2-c2nc3c(s2)CCOc2cc(-c4cnn(CC(C)(C)O)c4)ccc2-3)C1` (stereo unspecified), with less than 1000 nM.

With `CN(C)C(=O)c1nc2c(s1)CCOc1cc(-c3cn[nH]c3)ccc1-2`, the IC50 was less than 1000 nM. Then `C[C@@H](O)CNC(=O)c1ccc(Cl)c(N(C)C(=O)c2cc3c(s2)-c2ccc(C(=O)NCCS(C)(=O)=O)cc2OCC3)c1`, with less than 1000 nM; and `Cc1nc(-c2nc3c(s2)CCOc2cc(C4CN(CCF)C4)ccc2-3)n(C(C)C)n1`, with less than 1000 nM.

In turn, `OCCn1cc(-c2ccc3c(c2)OCCc2sc(-c4ncnn4Cc4ccncc4)nc2-3)cn1` registered an IC50 of less than 1000 nM. Then `CN(CCc1ccccc1)C(=O)c1nc2c(s1)CCOc1cc(-c3cn[nH]c3)ccc1-2`, with less than 1000 nM.

In turn, `O=C(c1nc2c(s1)CCOc1cc(-c3cn[nH]c3)ccc1-2)N1CCN2CCCC[C@@H]2C1` had a 50% inhibitory concentration (IC50) of less than 1000 nM. Then `C[C@@H]1CN(c2ccc3c(n2)-c2sc(-c4ncnn4-c4ccc(F)cc4F)cc2CCO3)C[C@H](C)N1C(=O)C(F)F`, with less than 1000 nM. Then `CC(C)N(CCO)C(=O)c1nc2c(s1)CCOc1cc(-c3cnn(CC(C)(C)O)c3)ccc1-2`, with less than 1000 nM; and `CC(C)n1ncnc1-c1nc2c(s1)CCOc1ccc(-c3c[nH]c(=O)[nH]c3=O)cc1-2`, with less than 1000 nM. Then `CNC(=O)c1ccc2c(c1)OCCc1cc(C(=O)N(C)c3cc(C(=O)N4CC(O)C4)ccc3Cl)sc1-2`, with less than 1000 nM; and `COCCNC(=O)c1ccc2c(c1)OCCc1sc(-c3ncnn3C(C)C)nc1-2`, with less than 1000 nM; and `C[C@@H]1CN(c2ccc3c(n2)-c2sc(-c4ncnn4-c4ccc(F)cc4F)cc2CCO3)C[C@H](C)N1CCF`, with less than 1000 nM. `FC(F)(F)Cn1ncnc1-c1nc2c(s1)CCOc1cc(-c3cnn(CCNC4COC4)c3)ccc1-2` gave an IC50 of less than 1000 nM. In the case of `CC(C)n1ncnc1-c1nc2c(s1)CCOc1ccc(-c3cccn(CC(=O)N(C)C)c3=O)cc1-2`, the IC50 is less than 1000 nM.

Compound `CC(C)CN(C)C(=O)c1nc2c(s1)CCOc1cc(-c3cn[nH]c3)ccc1-2` came in with a half-maximal inhibitory concentration (IC50) of less than 1000 nM. As to `Cn1cc(-c2ccc3c(n2)-c2sc(-c4ncnn4-c4ccc(F)cc4F)cc2CCO3)cn1`, the IC50 was less than 1000 nM. `CC(O)Cn1ncnc1-c1nc2c(s1)CCOc1cc(-c3cnn(CC(C)(C)O)c3)ccc1-2` (stereo unspecified) registered a concentration for half-maximal inhibition (IC50) of less than 1000 nM. Compound `CC(C)n1nc(N)nc1-c1nc2c(s1)CCOc1cc(-c3cnn(CC4(C)COC4)c3)ccc1-2` registered an IC50 of less than 1000 nM. The compound `Fc1ccc(-n2ncnc2-c2cc3c(s2)-c2nc(N4CCN(CC(F)(F)F)CC4)ccc2OCC3)c(F)c1` came in with an IC50 of less than 1000 nM. Then `CC(=O)N1CC2CC1CN2c1ccc2c(n1)-c1sc(-c3ncnn3-c3ccc(F)cc3F)cc1CCO2` (stereo unspecified), with less than 1000 nM; and `COCC1CCN(C(=O)c2nc3c(s2)CCOc2cc(-c4cn[nH]c4)ccc2-3)CC1`, with less than 1000 nM. In turn, `CC(C)n1ncnc1-c1nc2c(s1)CCOc1cc(-c3cccc(CC(N)=O)c3)ccc1-2` gave an IC50 of less than 1000 nM. Then `Cc1noc(C)c1-c1ccc2c(c1)OCCc1sc(C(=O)N(CCO)C(C)C)nc1-2`, with less than 1000 nM; and `OCCn1cc(-c2ccc3c(c2)OCCc2sc(-c4ncnn4CCN4CCOCC4)nc2-3)cn1`, with less than 1000 nM; and `COCCn1cc(-c2ccc3c(c2)OCCc2sc(-c4ncnn4C(C)C)nc2-3)ccc1=O`, with less than 1000 nM. Then `CC(C)n1ncnc1-c1nc2c(s1)CCOc1cc(C3CCN(C(C)(C)C(N)=O)CC3)ccc1-2`, with less than 1000 nM; and `CC(C)n1ncnc1-c1nc2c(s1)CCOc1cc(C3CCN(CCS(C)(=O)=O)CC3)ccc1-2`, with less than 1000 nM; and `CN1CCN(c2ccc(-c3ccc4c(n3)-c3sc(-c5ncnn5-c5ccc(F)cc5F)cc3CCO4)cn2)CC1`, with less than 1000 nM. Then `OCCn1cc(-c2ccc3c(c2)OCCc2sc(-c4ncnn4CC(F)(F)F)nc2-3)cn1`, with less than 1000 nM; and `COCCOc1ncccc1-c1ccc2c(c1)-c1nc(-c3ncnn3C(C)C)sc1CCO2`, with less than 1000 nM. Regarding `CC(C)(O)Cn1cc(-c2ccc3c(c2)OCCc2sc(-c4ncnn4Cc4ccncc4)nc2-3)cn1`, the 50% inhibitory concentration (IC50) is less than 1000 nM. As for `Cc1ncccc1-c1ccc2c(c1)-c1nc(-c3ncnn3C(C)C)sc1CCO2`, the IC50 is less than 1000 nM. Then `CN(C)C(=O)CNc1ccc2c(n1)-c1sc(-c3ncnn3-c3ccc(F)cc3F)cc1CCO2`, with less than 1000 nM; and `CC(C)(N)Cn1cc(-c2ccc3c(c2)OCCc2sc(-c4ncnn4CC(F)(F)F)nc2-3)cn1`, with less than 1000 nM; and `Cc1nc(-c2nc3c(s2)CCOc2cc(CN)ccc2-3)n(C(C)C)n1`, with less than 1000 nM. Then `CC(=O)N1CC(N(C(C)=O)c2ccc3c(n2)-c2sc(-c4ncnn4-c4ccc(F)cc4F)cc2CCO3)C1`, with less than 1000 nM; and `COc1ccc(-c2ccc3c(c2)-c2nc(-c4ncnn4C(C)C)sc2CCO3)cn1`, with less than 1000 nM; and `CN(C[C@H]1CCCO1)C(=O)c1nc2c(s1)CCOc1cc(-c3cn[nH]c3)ccc1-2`, with less than 1000 nM. Then `CC(=O)N1CC(n2ccnc2-c2nc3c(s2)CCOc2cc(-c4cnn(CC(C)(C)O)c4)ccc2-3)C1`, with less than 1000 nM; and `O=C(O)Cn1cc(-c2ccc3c(c2)OCCc2sc(-c4ncnn4CC(F)(F)F)nc2-3)cn1`, with less than 1000 nM. In turn, `CC(C)n1ncnc1-c1nc2c(s1)CCOc1cc(C(=O)NCCOCCO)ccc1-2` registered an IC50 of less than 1000 nM. Consider `CN(C(=O)c1cc2c(s1)-c1ccc(C(=O)NCCS(C)(=O)=O)cc1OCC2)c1cc(C(=O)N2CCNCC2)ccc1Cl`, for which the IC50 was less than 1000 nM. In the case of `CC(C)N(CCO)C(=O)c1nc2c(s1)CCOc1ccc(-c3ccc(N)nc3)cc1-2`, the IC50 was less than 1000 nM.

As for `CC(C)n1cnnc1-c1nc2c(s1)CCOc1cc(CNCCO)ccc1-2`, the IC50 is less than 1000 nM.
